The data set can be described thus: Reactivity of DMDS towards Cu(II) ions (odor over time). In kind it is physicochemical. The following applies: in CuSiNG; preliminary results, characteristic odor over time. As for the experimental part:
Unlike SiNG, the physico-chemical environment of DMDS in CuSiNG is expected to be somewhat different due to presence of Cu (II) ions. […] However, the DMDS electron-rich sulfur atom has the ability to weakly interact with electron-deficient Cu(II) ion. This could further facilitate adsorption of DMDS into CuSiNG. Thorough FT-IR studies are performed to understand the nature of intermolecular interactions that exist between DMDS and SiNG. In addition, thermogravimetric analysis (TGA), calorimetry and QCM sensing studies to obtain DMDS loading/release characteristics (isotherms) against CuSiNG and SiNG materials will be used to determine the role of Cu II ions in DMDS loading. A comparative isotherm data analysis along with FT-IR analysis will reveal the effect of Cu in DMDS loading/release process.

This note sets out measurements from patent publication US8992960B2, “Multifunctional silica-based compositions and gels, methods of making them, and methods of using them” (University of Florida Research Foundation, Inc., priority 2010, dated 2015).

SMILES strings stand for the structures.

As to `CSSC` [DMDS, dimethyl disulfide], the “reactivity to Cu(II) ions” value is “non-reactive to Cu(II) ions”.
